Reference: patent US20250228239A1, “MOLECULES HAVING PESTICIDAL UTILITY, AND INTERMEDIATES, COMPOSITIONS, AND PROCESSES, RELATED THERETO” (priority 2024, published 2025)

What was measured:
[1] = system: Beet Armyworm (Spodoptera exigua, LAPHEG); experiment: Bioassays on Beet Armyworm (BAW), 128-well diet tray assay; type: in vivo; conditions: Spodoptera exigua; Table ABC: Biological Results; species BAW; read-out: BAW
Summary of the method: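 Larvae at second instar are exposed on dried, compound-treated diet (50 μg/cm^2, delivered in 90:10 acetone-water) in eight replicate wells. After five to seven days at 25° C., 14:10 light-dark, percent mortality in each well is scored and the eight wells averaged.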

[2] = system: Cabbage Looper (Trichoplusia ni, TRIPNI); experiment: Bioassays on Cabbage Looper (CL), 128-well diet tray assay; type: in vivo; conditions: Trichoplusia ni; Table ABC: Biological Results; species CL; read-out: CL
Summary of the method: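 Activity is mean percent mortality over eight wells of second-instar larvae exposed to diet treated at 50 μg/cm^2 for 5–7 days at 25° C.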

Row | SMILES | pest or weed control at 50 µg/cm2 [1] [%] | pest or weed control at 50 µg/cm2 [2] [%]
1 | Cc1cc(NC(=O)CCCN)ccc1NC(=O)c1cc(NC(=O)[C@H]2[C@H](c3ccc(Cl)c(Cl)c3)C2(Cl)Cl)ccc1Cl (relative stereo) [F1202, trans-N-(4-(4-Aminobutanamido)-2-methylphenyl)-2-chloro-5-(2,2-dichloro-3-(3,4-dichlorophenyl)cyclopropane-1-carboxamido)benzamide] | 50 to 100 | 50 to 100
2 | O=C(Nc1ccc(F)c(O)c1F)c1cc(NC(=O)[C@H]2[C@H](c3cc(Cl)cc(Cl)c3)C2(Cl)Cl)ccc1Cl (relative stereo) [F1203, trans-2-chloro-5-(2,2-dichloro-3-(3,5-dichlorophenyl)cyclopropane-1-carboxamido)-N-(2,4-difluoro-3-hydroxyphenyl)benzamide] | 0 to 50 | 50 to 100
3 | O=C(Nc1ccccc1)c1cc(NC(=O)[C@H]2[C@H](c3ccc(F)c(Cl)c3)C2(Cl)Cl)cc(F)c1F (relative stereo) [F1207, trans-5-(2,2-Dichloro-3-(3-chloro-4-fluorophenyl)cyclopropane-1-carboxamido)-2,3-difluoro-N-phenylbenzamide] | 50 to 100 | 50 to 100
4 | O=C(Nc1ccc(F)cc1)c1cc(NC(=O)[C@H]2[C@H](c3ccc(F)c(Cl)c3)C2(Cl)Cl)cc(F)c1F (relative stereo) [F1208, trans-5-(2,2-Dichloro-3-(3-chloro-4-fluorophenyl)cyclopropane-1-carboxamido)-2,3-difluoro-N-(4-fluorophenyl)benzamide] | 50 to 100 | 50 to 100
5 | O=C(Nc1ccc(F)cc1F)c1cc(NC(=O)[C@H]2[C@H](c3ccc(F)c(Cl)c3)C2(Cl)Cl)cc(F)c1F (relative stereo) [F1209, trans-5-(2,2-Dichloro-3-(3-chloro-4-fluorophenyl)cyclopropane-1-carboxamido)-N-(2,4-difluorophenyl)-2,3-difluorobenzamide] | 50 to 100 | 50 to 100
6 | CC(=O)Nc1ccc(NC(=O)c2cc(NC(=O)[C@H]3[C@H](c4ccc(F)c(Cl)c4)C3(Cl)Cl)cc(F)c2F)cc1 (relative stereo) [F1210, trans-N-(4-Acetamidophenyl)-5-(2,2-dichloro-3-(3-chloro-4-fluorophenyl)cyclopropane-1-carboxamido)-2,3-difluorobenzamide] | 50 to 100 | 50 to 100
7 | CC(C)(C)OC(=O)N(C(=O)OC(C)(C)C)c1c(F)ccc(NC(=O)c2cc(NC(=O)[C@H]3[C@H](c4ccc(F)c(Cl)c4)C3(Cl)Cl)cc(F)c2F)c1F (relative stereo) [F1211, trans-tert-Butyl-N-tert-butoxycarbonyl-N-[3-[[5-[[2,2-dichloro-3-(3-chloro-4-fluorophenyl)cyclopropanecarbonyl]amino]-2,3-difluorobenzoyl]amino]-2,6-difluorophenyl]carbamate] | 50 to 100 | 50 to 100
8 | Cc1cc(NC(=O)[C@H]2[C@H](c3ccc(F)c(Cl)c3)C2(Cl)Cl)cc(C(=O)Nc2ccc(F)c(N)c2F)c1Cl (relative stereo) [F1222, trans-N-(3-Amino-2,4-difluorophenyl)-2-chloro-5-(2,2-dichloro-3-(3-chloro-4-fluorophenyl)cyclopropane-1-carboxamido)-3-methylbenzamide] | 50 to 100 | 50 to 100
9 | Cc1c(Cl)cc(NC(=O)[C@H]2[C@H](c3ccc(F)c(Cl)c3)C2(Cl)Cl)cc1C(=O)Nc1ccc(F)c(N)c1F (relative stereo) [F1223, trans-N-(3-Amino-2,4-difluorophenyl)-3-chloro-5-(2,2-dichloro-3-(3-chloro-4-fluorophenyl)cyclopropane-1-carboxamido)-2-methylbenzamide] | 50 to 100 | 50 to 100
10 | Cc1cc(O)ccc1NC(=O)c1cc(NC(=O)[C@H]2[C@H](c3cc(Cl)cc(Cl)c3)C2(Cl)Cl)ccc1Cl (relative stereo) [F1224, trans-2-chloro-5-(2,2-dichloro-3-(3,5-dichlorophenyl)cyclopropane-1-carboxamido)-N-(4-hydroxy-2-methylphenyl)benzamide] | 50 to 100 | 50 to 100
11 | Nc1c(F)ccc(NC(=O)c2cc(NC(=O)[C@H]3[C@H](c4ccc(F)c(Cl)c4)C3(Cl)Cl)cc(C(F)(F)F)c2Cl)c1F (relative stereo) [F1225, trans-N-(3-Amino-2,4-difluorophenyl)-2-chloro-5-(2,2-dichloro-3-(3-chloro-4-fluorophenyl)cyclopropane-1-carboxamido)-3-(trifluoromethyl)benzamide] | 50 to 100 | 50 to 100
12 | COc1c(F)cc(NC(=O)[C@H]2[C@H](c3ccc(F)c(Cl)c3)C2(Cl)Cl)cc1C(=O)Nc1ccc(F)c(N)c1F (relative stereo) [F1226, trans-N-(3-Amino-2,4-difluorophenyl)-5-(2,2-dichloro-3-(3-chloro-4-fluoro-phenyl)cyclopropane-1-carboxamido)-3-fluoro-2-methoxybenzamide] | 50 to 100 | 50 to 100
13 | COc1c(Cl)cc(NC(=O)[C@H]2[C@H](c3ccc(F)c(Cl)c3)C2(Cl)Cl)cc1C(=O)Nc1ccc(F)cc1 (relative stereo) [F1235, trans-3-Chloro-5-(2,2-dichloro-3-(3-chloro-4-fluorophenyl)cyclopropane-1-carboxamido)-N-(4-fluorophenyl)-2-methoxybenzamide] | 50 to 100 | 50 to 100
14 | COc1c(Cl)cc(NC(=O)[C@H]2[C@H](c3ccc(F)c(Cl)c3)C2(Cl)Cl)cc1C(=O)Nc1ccc(F)cc1F (relative stereo) [F1236, trans-3-Chloro-5-(2,2-dichloro-3-(3-chloro-4-fluorophenyl)cyclopropane-1-carboxamido)-N-(2,4-difluorophenyl)-2-methoxybenzamide] | 50 to 100 | 50 to 100
15 | Cc1cc(NC(=O)c2cc(NC(=O)[C@H]3[C@H](c4cc(Cl)cc(Cl)c4)C3(Cl)Cl)ccc2Cl)c(C)cc1N (relative stereo) [F1257, trans-N-(4-Amino-2,5-dimethylphenyl)-2-chloro-5-(2,2-dichloro-3-(3,5-dichlorophenyl)cyclopropane-1-carboxamido)benzamide] | 50 to 100 | 50 to 100
16 | Nc1c(F)ccc(NC(=O)c2cc(NC(=O)[C@H]3[C@@H](c4cc(Cl)cc(S(F)(F)(F)(F)F)c4)C3(Cl)Cl)ccc2Cl)c1F (relative stereo) [F1260, cis-N-(3-Amino-2,4-difluorophenyl)-2-chloro-5-(2,2-dichloro-3-(3-chloro-5-(pentafluoro-λ^6-sulfanyl)phenyl)cyclopropane-1-carboxamido)benzamide] | 50 to 100 | 50 to 100
17 | COC(=O)c1c(F)ccc(NC(=O)c2cc(NC(=O)[C@H]3[C@H](c4cc(Cl)cc(Cl)c4)C3(Cl)Cl)ccc2Cl)c1F (relative stereo) [F1265, trans-Methyl 3-(2-chloro-5-(2,2-dichloro-3-(3,5-dichlorophenyl)cyclopropane-1-carboxamido)benzamido)-2,6-difluorobenzoate] | 50 to 100 | 50 to 100
18 | Cc1c(F)cc(NC(=O)[C@H]2[C@H](c3ccc(F)c(Cl)c3)C2(Cl)Cl)cc1C(=O)Nc1ccc(F)c(N)c1F (relative stereo) [F1286, trans-N-(3-Amino-2,4-difluorophenyl)-5-(2,2-dichloro-3-(3-chloro-4-fluorophenyl)cyclopropane-1-carboxamido)-3-fluoro-2-methylbenzamide] | 50 to 100 | 50 to 100
19 | O=C(Nc1ccc(F)c(NC(=O)C(F)F)c1F)c1cc(NC(=O)[C@H]2[C@H](c3cccc(S(F)(F)(F)(F)F)c3)C2(Cl)Cl)ccc1Cl (relative stereo) [F1293, trans-2-Chloro-5-(2,2-dichloro-3-(3-(pentafluoro-λ^6-sulfanyl)phenyl)cyclopropane-1-carboxamido)-N-(3-(2,2-difluoroacetamido)-2,4-difluorophenyl)benzamide] | 50 to 100 | 50 to 100
20 | O=C(Nc1ccc(Br)cc1F)c1cc(NC(=O)[C@H]2[C@H](c3cc(Cl)cc(Cl)c3)C2(Cl)Cl)ccc1Cl (relative stereo) [F1306, trans-N-(4-Bromo-2-fluorophenyl)-2-chloro-5-(2,2-dichloro-3-(3,5-dichlorophenyl)cyclopropane-1-carboxamido)benzamide] | 50 to 100 | 50 to 100
21 | O=C(Nc1ccc(F)c(Br)c1F)c1cc(NC(=O)[C@H]2[C@H](c3cc(Cl)cc(Cl)c3)C2(Cl)Cl)ccc1Cl (relative stereo) [F1307, trans-N-(3-Bromo-2,4-difluorophenyl)-2-chloro-5-(2,2-dichloro-3-(3,5-dichlorophenyl)cyclopropane-1-carboxamido)benzamide] | 50 to 100 | 50 to 100
22 | O=C(Nc1cc(Br)c(F)cc1F)c1cc(NC(=O)[C@H]2[C@H](c3cc(Cl)cc(Cl)c3)C2(Cl)Cl)ccc1Cl (relative stereo) [F1308, trans-N-(5-Bromo-2,4-difluorophenyl)-2-chloro-5-(2,2-dichloro-3-(3,5-dichlorophenyl)cyclopropane-1-carboxamido)benzamide] | 50 to 100 | 50 to 100
